As usually defined, the IC50 is the concentration at which inhibition is half-maximal.

Holding throughout (experiment): Screen Quest Fluo-8 No Wash Calcium Assay (Bz-ATP evoked Ca2+ influx, FLIPR)
Holding throughout (assay type): cell-based

Assay [1] addresses T1, P2X7 receptor (Mus musculus, UniProt Q9Z1M0).
T1 construct: mP2X7 (IC50; nM); other: mP2X7; HEK-293 cells stably transfected with P2X7 receptor, Bz-ATP at EC80, Fluo-8 NW; potency
T1 sequence (Q9Z1M0 1-595): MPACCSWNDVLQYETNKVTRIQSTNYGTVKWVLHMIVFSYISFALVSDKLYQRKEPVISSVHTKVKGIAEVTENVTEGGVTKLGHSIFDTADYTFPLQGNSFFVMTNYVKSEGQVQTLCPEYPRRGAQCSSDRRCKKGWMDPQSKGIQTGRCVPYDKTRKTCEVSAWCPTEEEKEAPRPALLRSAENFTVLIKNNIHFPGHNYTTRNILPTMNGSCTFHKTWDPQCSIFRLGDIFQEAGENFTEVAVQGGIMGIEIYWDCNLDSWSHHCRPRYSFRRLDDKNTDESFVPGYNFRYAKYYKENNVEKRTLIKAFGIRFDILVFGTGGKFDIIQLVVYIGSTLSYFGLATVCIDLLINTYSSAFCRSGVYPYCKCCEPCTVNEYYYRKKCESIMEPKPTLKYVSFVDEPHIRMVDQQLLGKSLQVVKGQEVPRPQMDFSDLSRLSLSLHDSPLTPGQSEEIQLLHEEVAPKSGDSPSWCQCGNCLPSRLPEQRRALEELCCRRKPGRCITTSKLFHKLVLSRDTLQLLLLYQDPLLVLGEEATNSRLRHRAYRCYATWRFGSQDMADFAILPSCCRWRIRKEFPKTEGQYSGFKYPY
To be noted: mP2X7; HEK-293 cells stably transfected with P2X7 receptor, Bz-ATP at EC80, Fluo-8 NW; potency ranges A-D. Here is the method:
(§1) Extracellular binding of Bz-ATP to P2X7 receptor opens the channel and allows Ca2+ influx into the cells. […] Once inside the cell, the lipophilic blocking groups of Fluo-8 are cleaved by non-specific cell esterases, resulting in a negatively-charged fluorescent dye that stays inside cells. Its fluorescence increases upon binding to calcium.
(§2) HEK-293 cells stably transfected with P2X7 receptor were seeded overnight in growth medium at 10,000 to 20,000 cell/well in 384-well plate. 24 hours later, the medium was removed and the cells were pre-loaded at RT for 1 hour with 20 μL/w of Fluo-8 NW. Then 10 μL/w of tests compounds and reference antagonist A438079 at 3×-concentration were injected with the […] and the kinetic response over a period of five minutes was monitored. A second injection of 15 μL/w of 3× reference activator (Bz-ATP at EC80) was performed with the […] and the signal of the emitted fluorescence was recorded for additional three minutes. All the experiment was carried out in a Low Divalent Cation Assay Buffer (0.3 mM Ca^2+ and 0 mM Mg^2+). The effect of the test compounds was measured as percent inhibition vs the reference antagonist and IC50 values were calculated accordingly.

For assay [2], the target named is T2, P2X7 receptor (Rattus norvegicus, UniProt Q64663).
T2 construct: rP2X7 (IC50; nM); other: rP2X7; HEK-293 cells stably transfected with P2X7 receptor, Bz-ATP at EC80, Fluo-8 NW; potency
T2 sequence (Q64663 1-595): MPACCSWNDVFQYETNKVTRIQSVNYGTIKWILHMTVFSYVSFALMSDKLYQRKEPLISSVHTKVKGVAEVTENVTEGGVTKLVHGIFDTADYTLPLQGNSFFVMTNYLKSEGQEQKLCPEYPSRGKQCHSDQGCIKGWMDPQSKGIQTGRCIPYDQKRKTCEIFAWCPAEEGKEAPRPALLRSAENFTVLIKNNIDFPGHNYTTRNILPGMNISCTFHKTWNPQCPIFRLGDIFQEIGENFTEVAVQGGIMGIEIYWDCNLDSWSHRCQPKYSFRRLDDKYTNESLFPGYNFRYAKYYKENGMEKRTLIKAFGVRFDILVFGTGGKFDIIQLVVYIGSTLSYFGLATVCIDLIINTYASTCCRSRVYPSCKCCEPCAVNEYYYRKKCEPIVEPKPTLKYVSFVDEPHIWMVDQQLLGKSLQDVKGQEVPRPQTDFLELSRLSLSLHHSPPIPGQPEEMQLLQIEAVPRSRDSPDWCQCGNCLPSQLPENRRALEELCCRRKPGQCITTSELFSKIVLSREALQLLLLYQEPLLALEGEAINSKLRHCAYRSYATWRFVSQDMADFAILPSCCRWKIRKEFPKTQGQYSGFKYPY
To be noted: rP2X7; HEK-293 cells stably transfected with P2X7 receptor, Bz-ATP at EC80, Fluo-8 NW; potency ranges A-D. As for the experimental part:
as §1, §2

In assay [3] the target is T3, P2X7 receptor (Homo sapiens, UniProt Q99572).
T3 sequence (Q99572 1-595): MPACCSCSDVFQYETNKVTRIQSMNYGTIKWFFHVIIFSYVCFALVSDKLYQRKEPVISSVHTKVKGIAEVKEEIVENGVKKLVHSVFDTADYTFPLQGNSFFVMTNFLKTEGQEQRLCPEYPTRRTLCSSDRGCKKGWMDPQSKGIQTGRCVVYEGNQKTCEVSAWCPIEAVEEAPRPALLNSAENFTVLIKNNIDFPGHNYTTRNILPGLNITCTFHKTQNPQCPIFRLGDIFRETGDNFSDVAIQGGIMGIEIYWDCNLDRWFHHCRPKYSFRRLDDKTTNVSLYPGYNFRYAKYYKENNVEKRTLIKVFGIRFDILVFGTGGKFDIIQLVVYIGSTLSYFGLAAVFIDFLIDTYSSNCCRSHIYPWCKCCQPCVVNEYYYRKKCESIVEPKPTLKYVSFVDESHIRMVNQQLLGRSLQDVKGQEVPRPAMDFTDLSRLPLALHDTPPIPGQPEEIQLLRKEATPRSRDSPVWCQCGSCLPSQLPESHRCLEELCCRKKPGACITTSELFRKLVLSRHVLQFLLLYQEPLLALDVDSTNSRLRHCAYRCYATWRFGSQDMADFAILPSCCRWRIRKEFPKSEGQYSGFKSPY
Details: hP2X7 (IC50; nM); other: hP2X7; HEK-293 cells stably transfected with P2X7 receptor, Bz-ATP at EC80, Fluo-8 NW; potency. To be noted: hP2X7; HEK-293 cells stably transfected with P2X7 receptor, Bz-ATP at EC80, Fluo-8 NW; potency ranges A-D. As for the experimental part:
as §1, §2

In the case of `O=c1onc(Cc2c(F)cccc2Cl)n1Cc1ccc(C(F)(F)F)nc1` [Example 37, 3-[(2-chloro-6-fluorophenyl)methyl]-4-{[6-(trifluoromethyl)pyridin-3-yl]methyl}-4,5-dihydro-1,2,4-oxadiazol-5-one], the IC50 was 1000 to 10000 nM in assay [1], above 10000 nM in assay [2] and 1000 to 10000 nM in assay [3].

Take `O=c1onc(Cc2c(F)cccc2Cl)n1Cc1cncnc1` [Example 38, 3-[(2-chloro-6-fluorophenyl)methyl]-4-(pyrimidin-5-ylmethyl)-4,5-dihydro-1,2,4-oxadiazol-5-one]: the IC50 in assay [1], in assay [2] and in assay [3] was above 10000 nM in each case.

With `O=c1onc(Cc2c(F)cccc2Cl)n1Cc1ncccn1` [Example 39, 3-[(2-chloro-6-fluorophenyl)methyl]-4-(pyrimidin-2-ylmethyl)-4,5-dihydro-1,2,4-oxadiazol-5-one], the IC50 in assay [1], in assay [2] and in assay [3] was above 10000 nM in each case.

For the compound `O=c1onc(Cc2c(F)cccc2Cl)n1Cc1cnco1` [Example 40, 3-[(2-chloro-6-fluorophenyl)methyl]-4-(1,3-oxazol-5-ylmethyl)-4,5-dihydro-1,2,4-oxadiazol-5-one], the 50% inhibitory concentration (IC50) in assay [1], in assay [2] and in assay [3] was above 10000 nM in each case.

For the compound `Cc1nnc(Cn2c(Cc3c(F)cccc3Cl)noc2=O)o1` [Example 41, 3-[(2-chloro-6-fluorophenyl)methyl]-4-[(5-methyl-1,3,4-oxadiazol-2-yl)methyl]-4,5-dihydro-1,2,4-oxadiazol-5-one], the IC50 in assay [1], in assay [2] and in assay [3] was above 10000 nM each time.

`O=c1onc(Cc2c(F)cccc2Cl)n1Cc1cccnc1` [Example 42, 3-[(2-chloro-6-fluorophenyl)methyl]-4-(pyridin-3-ylmethyl)-4,5-dihydro-1,2,4-oxadiazol-5-one]: the 50% inhibitory concentration (IC50) in assay [1], in assay [2] and in assay [3] was above 10000 nM throughout.

Consider `O=c1onc(Cc2c(F)cccc2Cl)n1Cc1ccncc1` [Example 43, 3-[(2-chloro-6-fluorophenyl)methyl]-4-(pyridin-4-ylmethyl)-4,5-dihydro-1,2,4-oxadiazol-5-one], for which the IC50 in assay [1], in assay [2] and in assay [3] was above 10000 nM in each case.

As to `O=c1onc(Cc2c(F)cccc2Cl)n1Cc1ccoc1` [Example 44, 3-[(2-chloro-6-fluorophenyl)methyl]-4-(furan-3-ylmethyl)-4,5-dihydro-1,2,4-oxadiazol-5-one], the results for the half-inhibitory concentration (IC50) in assay [1], in assay [2] and in assay [3] were above 10000 nM, 1000 to 10000 nM and 1000 to 10000 nM, respectively.

`O=c1onc(Cc2c(F)cccc2Cl)n1Cc1ncc(F)cn1` [Example 45, 3-[(2-chloro-6-fluorophenyl)methyl]-4-[(5-fluoropyrimidin-2-yl)methyl]-4,5-dihydro-1,2,4-oxadiazol-5-one]: the concentration for half-maximal inhibition (IC50) in assay [1], in assay [2] and in assay [3] was above 10000 nM throughout.

As to `Cc1cc(Cn2c(Cc3c(F)cccc3Cl)noc2=O)n(C)n1` [Example 46, 3-[(2-chloro-6-fluorophenyl)methyl]-4-[(1,3-dimethyl-1H-pyrazol-5-yl)methyl]-4,5-dihydro-1,2,4-oxadiazol-5-one], the concentration for half-maximal inhibition (IC50) in assay [1], in assay [2] and in assay [3] was above 10000 nM in each case.

Regarding `Cn1ccnc1Cn1c(Cc2c(F)cccc2Cl)noc1=O` [Example 47, 3-[(2-chloro-6-fluorophenyl)methyl]-4-[(1-methyl-1H-imidazol-2-yl)methyl]-4,5-dihydro-1,2,4-oxadiazol-5-one], the IC50 in assay [1], in assay [2] and in assay [3] was above 10000 nM throughout.

As to `O=c1onc(Cc2ccc(F)cc2)n1Cc1cccc(Cl)c1Cl` [Example 50, 4-[(2,3-dichlorophenyl)methyl]-3-[(4-fluorophenyl)methyl]-4,5-dihydro-1,2,4-oxadiazol-5-one], the IC50 in assay [1], in assay [2] and in assay [3] was above 10000 nM throughout.

On to `O=c1onc(Cc2ccc(F)cc2)n1Cc1ccc(F)cc1Cl` [Example 51, 4-[(2-chloro-4-fluorophenyl)methyl]-3-[(4-fluorophenyl)methyl]-4,5-dihydro-1,2,4-oxadiazol-5-one], for which the IC50 in assay [1], in assay [2] and in assay [3] was 1000 to 10000 nM in each case.

As to `O=c1onc(Cc2ccc(F)cc2)n1Cc1cccc(C(F)(F)F)c1Cl` [Example 52, 4-{[2-chloro-3-(trifluoromethyl)phenyl]methyl}-3-[(4-fluorophenyl)methyl]-4,5-dihydro-1,2,4-oxadiazol-5-one], the IC50 in assay [1], in assay [2] and in assay [3] was above 10000 nM each time.

`O=c1onc(Cc2ccc(F)cc2)n1Cc1ccc(F)cc1F` [Example 53, 4-[(2,4-difluorophenyl)methyl]-3-[(4-fluorophenyl)methyl]-4,5-dihydro-1,2,4-oxadiazol-5-one]: the values for the IC50 in assay [1], in assay [2] and in assay [3] were above 10000 nM, 200 to 1000 nM and above 10000 nM, respectively.

In the case of `O=c1onc(Cc2ccc(F)cc2)n1Cc1ccc(F)cc1` [Example 54, bis[(4-fluorophenyl)methyl]-4,5-dihydro-1,2,4-oxadiazol-5-one], the figures for the half-maximal inhibitory concentration (IC50) in assay [1], in assay [2] and in assay [3] were above 10000 nM, above 10000 nM and 1000 to 10000 nM, respectively.

On to `O=c1onc(Cc2c(F)cccc2Cl)n1Cc1ccccc1F` [Example 56, 3-[(2-chloro-6-fluorophenyl)methyl]-4-[(2-fluorophenyl)methyl]-4,5-dihydro-1,2,4-oxadiazol-5-one], for which the IC50 in assay [1], in assay [2] and in assay [3] was 1000 to 10000 nM throughout.
